This is an account of results in ChEMBL document CHEMBL1201862, “PubChem BioAssay data set” (2004).

Some test systems named below: SW-620; HL-60; SF-268; SK-MEL-2; HOP-92; CAKI-1; OVCAR-8; T47D; DU-145; OVCAR-3; PC-3; NCI-H522; MDA-MB-231; A498; HOP-62; IGROV-1; K562; UACC-62; M14; HT-29.
What all share (test): growth of human tumour cells (NCI), 48 h

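How tested: cells in 96-well plates exposed to compound for 48 hours at five concentrations. GI50: concentration for 50% inhibition of growth.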 Activity calls are given as the source filed them. No stated cut-off is given here; in the data, active = GI50 up to about 1.1 µM and inactive = higher.

Turning to `COc1ccc2cc(C(=O)CCC(=O)O)ccc2c1`, the GI50 in the assay with SW-620, in the assay with HL-60, in the assay on SF-268, in the assay with SK-MEL-2, in the assay on HOP-92 and in the assay with CAKI-1 was > 100 µM (inactive) throughout. For the same compound, the GI50 with OVCAR-8, with T47D, in the assay with DU-145, in the assay with OVCAR-3, with PC-3 and with NCI-H522 was > 100 µM (inactive) in each case. Besides, the GI50 in the assay with MDA-MB-231, in the assay with A498, in the assay with HOP-62, in the assay on IGROV-1, with K562 and in the assay on UACC-62 was > 100 µM (inactive) in each case. The GI50 in the assay with M14 and in the assay with HT-29 was > 100 µM (inactive) in each case.

For `CC(=O)OC1=CC2(OC(C)=O)CC(C)(C)C1C1C(=O)C=CC(=O)C12` (configuration not stated), the GI50 is > 65 µM (inactive) in the assay on SW-620; > 100 µM (inactive) in the assay with HL-60; > 63 µM (inactive) in the assay on SF-268; > 100 µM (inactive) in the assay on SK-MEL-2; 42.5 µM (inactive) in the assay on HOP-92; > 63.5 µM (inactive) in the assay on CAKI-1. The GI50 is > 58.2 µM (inactive) in the assay on OVCAR-8; 49.4 µM (inactive) with T47D; > 100 µM (inactive) in the assay with DU-145; > 66.7 µM (inactive) with OVCAR-3; 57.8 µM (inactive) with PC-3; > 36.5 µM (inactive) with NCI-H522. The GI50 was 54 µM (inactive) with MDA-MB-231; 72.8 µM (inactive) in the assay on A498; > 80.9 µM (inactive) in the assay on HOP-62; > 50.7 µM (inactive) in the assay on IGROV-1; 97.1 µM (inactive) with K562; 15.7 µM (inactive) with UACC-62. Moreover, the GI50 in the assay on M14 is > 79.3 µM (inactive); in the assay on HT-29, 19.8 µM (inactive).

Turning to `[N-]=[N+]=C1C(=O)c2ccccc2-c2ccccc21`, the GI50 was 37.4 µM (inactive) in the assay with SW-620; 28.8 µM (inactive) in the assay with HL-60; 33.3 µM (inactive) in the assay with SF-268; 29.4 µM (inactive) with SK-MEL-2; 33.3 µM (inactive) in the assay with HOP-92; 37.4 µM (inactive) in the assay on CAKI-1. In addition, the GI50 in the assay with OVCAR-8 is 30.6 µM (inactive); in the assay on T47D, 28.3 µM (inactive); in the assay with DU-145, 30.9 µM (inactive); in the assay on OVCAR-3, 40.9 µM (inactive); in the assay on PC-3, 25.8 µM (inactive); in the assay with NCI-H522, 24.4 µM (inactive). Moreover, the GI50 in the assay on MDA-MB-231 was 36 µM (inactive); with A498, 16.3 µM (inactive); in the assay with HOP-62, 41.2 µM (inactive); in the assay with IGROV-1, 33 µM (inactive); in the assay on K562 it was 36.6 µM (inactive); in the assay with UACC-62, 22.3 µM (inactive). For the same compound, the GI50 in the assay on M14 is 44.6 µM (inactive); in the assay on HT-29, 34.8 µM (inactive).

As to `CC(C(=O)OCc1ccccc1)(c1ccco1)N1C(=O)OC(c2ccccc2)C1c1ccccc1` (configuration not stated), the GI50 was > 100 µM (inactive) with SW-620; 3.81 µM (inactive) with HL-60; > 100 µM (inactive) with SF-268; > 100 µM (inactive) with SK-MEL-2; > 100 µM (inactive) with HOP-92; > 100 µM (inactive) in the assay on CAKI-1. The GI50 in the assay with OVCAR-8 was > 100 µM (inactive); with T47D, 5.96 µM (inactive); in the assay with DU-145, > 100 µM (inactive); in the assay with OVCAR-3 it was > 100 µM (inactive); in the assay with PC-3 it was 6.01 µM (inactive); in the assay with NCI-H522, > 100 µM (inactive). The GI50 with MDA-MB-231 is > 30.5 µM (inactive); with A498, > 59.8 µM (inactive); in the assay with HOP-62, > 100 µM (inactive); in the assay with IGROV-1, > 100 µM (inactive); in the assay with K562, 7.18 µM (inactive); in the assay on UACC-62 it was 97.1 µM (inactive). The GI50 in the assay on M14 and with HT-29 was > 100 µM (inactive) in each case.

With `Cc1nc2ccccc2c(=O)n1/N=C(\N=N\c1cc(Cl)ccc1Cl)c1ccccc1`, the GI50 in the assay with SW-620 is 32.1 µM (inactive); in the assay on HL-60, 58.5 µM (inactive); with SF-268 it was 58.6 µM (inactive); in the assay on SK-MEL-2, 60.5 µM (inactive); in the assay with HOP-92 it was 30.4 µM (inactive); with CAKI-1 it was > 57.3 µM (inactive). Also, the GI50 is 65.9 µM (inactive) in the assay with OVCAR-8; > 100 µM (inactive) in the assay on T47D; > 100 µM (inactive) with DU-145; 53.2 µM (inactive) with OVCAR-3; 55.3 µM (inactive) in the assay on PC-3; 29.9 µM (inactive) with NCI-H522. Further, the GI50 in the assay on MDA-MB-231 is > 100 µM (inactive); in the assay on A498 it was > 94.2 µM (inactive); with HOP-62, 12.4 µM (inactive); with IGROV-1, 44.6 µM (inactive); with K562 it was > 100 µM (inactive); with UACC-62, 45.8 µM (inactive). In addition, the GI50 with M14 is 54.7 µM (inactive); with HT-29, 36.7 µM (inactive).

With `CC(=O)Nc1ccc(S(=O)(=O)/N=C2\C=CC(=O)c3ccccc32)cc1`, the GI50 with SW-620 was 6.62 µM (inactive); with HL-60 it was 0.481 µM (active); in the assay on SF-268, 8.02 µM (inactive); with SK-MEL-2, 14.3 µM (inactive); with HOP-92, 5.07 µM (inactive); in the assay on CAKI-1 it was 17.3 µM (inactive). For the same compound, the GI50 in the assay with OVCAR-8 was 2.8 µM (inactive); with T47D, 8.17 µM (inactive); in the assay with DU-145, 7.4 µM (inactive); with OVCAR-3, 2.45 µM (inactive); with PC-3, 3.28 µM (inactive); with NCI-H522 it was 14.5 µM (inactive). The GI50 in the assay on MDA-MB-231 is 2.78 µM (inactive); in the assay on A498 it was 10.3 µM (inactive); with HOP-62 it was 8.83 µM (inactive); with IGROV-1 it was 2.58 µM (inactive); in the assay with K562, 2.57 µM (inactive); with UACC-62, 5.51 µM (inactive). Further, the GI50 is 4.44 µM (inactive) with M14 and 13.6 µM (inactive) with HT-29.

In the case of `O=C(Nc1cnc(O)nc1O)C(Cl)Cl`, the GI50 in the assay on SW-620, with HL-60, in the assay with SK-MEL-2, in the assay on HOP-92, in the assay with CAKI-1 and in the assay with OVCAR-8 was > 100 µM (inactive) throughout. The GI50 in the assay on T47D, in the assay on DU-145, in the assay on OVCAR-3, with PC-3, in the assay with NCI-H522 and in the assay with MDA-MB-231 was > 100 µM (inactive) each time. Moreover, the GI50 with A498, with HOP-62, in the assay on IGROV-1, in the assay with K562, in the assay with UACC-62 and in the assay with M14 was > 100 µM (inactive) each time. In the assay with HT-29, the GI50 is > 100 µM (inactive).

With `CCOC(=O)C1(C(N)=O)C(=O)c2ccncc2C1=O` (configuration not stated), the GI50 with SW-620, in the assay on HL-60, in the assay with SF-268, in the assay on SK-MEL-2, in the assay with HOP-92 and in the assay on CAKI-1 was > 100 µM (inactive) in each case. The GI50 in the assay on OVCAR-8, in the assay on T47D, in the assay with DU-145, in the assay on OVCAR-3, in the assay on PC-3 and in the assay with NCI-H522 was > 100 µM (inactive) in each case. The GI50 with MDA-MB-231, in the assay with A498, in the assay on IGROV-1, in the assay on K562, in the assay with UACC-62 and in the assay on M14 was > 100 µM (inactive) in each case. Further, the GI50 with HT-29 was > 100 µM (inactive).

In the case of `COC(=O)/C=C1\CCC(C)(C(=O)NS(=O)(=O)c2ccc(C)cc2)C1(C)C` (configuration not stated), the GI50 in the assay on SW-620, in the assay on HL-60, with SF-268, with SK-MEL-2, with HOP-92 and in the assay on CAKI-1 was > 100 µM (inactive) in each case. Moreover, the GI50 in the assay on OVCAR-8, in the assay on T47D, in the assay with DU-145, with OVCAR-3, in the assay on PC-3 and in the assay on NCI-H522 was > 100 µM (inactive) in each case. The GI50 in the assay on MDA-MB-231, in the assay with A498, in the assay on HOP-62, in the assay on IGROV-1, with K562 and in the assay on UACC-62 was > 100 µM (inactive) each time. Moreover, the GI50 with M14 was > 100 µM (inactive).

Take `Cc1c(CCCl)c(N=[N+]=[N-])n2c(nc3ccccc32)c1C#N`: the GI50 was 0.355 µM (active) with SW-620; 0.348 µM (active) in the assay on HL-60; 2.22 µM (inactive) with SF-268; 1.48 µM (inactive) in the assay with SK-MEL-2; 1.25 µM (inactive) in the assay on HOP-92; 1.39 µM (inactive) in the assay with CAKI-1. The GI50 in the assay on OVCAR-8 was 1.7 µM (inactive); in the assay on T47D, 0.839 µM (active); in the assay with DU-145, 2.24 µM (inactive); in the assay on OVCAR-3, 1.39 µM (inactive); in the assay on PC-3, 1.42 µM (inactive); with NCI-H522 it was 0.163 µM (active). The GI50 with MDA-MB-231 was 1.42 µM (inactive); with A498 it was 1.64 µM (inactive); in the assay with HOP-62, 2.13 µM (inactive); in the assay with IGROV-1, 1.01 µM (active); with K562, 0.29 µM (active); in the assay on UACC-62, 1.34 µM (inactive). Also, the GI50 with M14 was 1.25 µM (inactive); in the assay with HT-29, 1.58 µM (inactive).
